Measurements as given in patent publication US10064954B2, “Polymer-cyclodextrin-lipid conjugates” (priority 2015, dated 2018).
Where a name gives a salt, the structure may show the parent alone.

assay: not given; type: physicochemical; conditions: not given
Protocol: 1% (w/v) of propofol was prepared in a saline based solution with different PEG-carbohydrate conjugates. Table 6 listed the minimum concentration of the conjugates required to solublize propofol as a solubility test reference.

| Compound | Concentration (% w/v) |
| --- | --- |
| 2-hydroxypropyl-β-cyclodextrin | 30 |
| cholesterypropanediaminelactobionate-mPEG12 | 3.5 |
| oleoylpropanediaminelactobionate-mPEG12 | 3.0 |

assay: Solubility of marketed Drug Products: cyclodextrin to drug ratio; conditions: CD = hydroxypropyl-β-cyclodextrin

| Compound | CD/D (mol/mol) |
| --- | --- |
| CN1C(=O)CN=C(c2ccccc2)c2cc(Cl)ccc21 [Diazepam] | 18.4 |
| O=C(CCCN1CCC(O)(c2ccc(Cl)cc2)CC1)c1ccc(F)cc1 [Haloperidol] | 302.9 |
| CCC(C)n1ncn(-c2ccc(N3CCN(c4ccc(OCC5COC(Cn6cncn6)(c6ccc(Cl)cc6Cl)O5)cc4)CC3)cc2)c1=O (stereo not drawn) [Itraconazole] | 20.2 |
| CN(Cc1cnc2nc(N)nc(N)c2n1)c1ccc(C(=O)N[C@@H](CCC(=O)O)C(=O)O)cc1 [Methotrexate] | 18.3 |
| CC(C)NCC(O)COc1cccc2ccccc12 (stereo not drawn) [Propranolol] | 10.4 |
| CNC(=C[N+](=O)[O-])NCCSCc1ccc(CN(C)C)o1 [Ranitidine HCl] | 14.5 |
| CCCCCCCCCCNCCN[C@@]1(C)C[C@H](O[C@H]2[C@H](Oc3c4cc5cc3Oc3ccc(cc3Cl)[C@@H](O)[C@@H](NC(=O)[C@@H](CC(C)C)NC)C(=O)N[C@@H](CC(N)=O)C(=O)N[C@H]5C(=O)N[C@H]3C(=O)N[C@H](C(=O)N[C@H](C(=O)O)c5cc(O)c(CNCP(=O)(O)O)c(O)c5-c5cc3ccc5O)[C@H](O)c3ccc(c(Cl)c3)O4)O[C@H](CO)[C@@H](O)[C@@H]2O)O[C@@H](C)[C@H]1O [Telavancin HCl] | 12.6 |

same assay, conditions: CD = sulfobutyl ether β-cyclodextrin

| Compound | CD/D (mol/mol) |
| --- | --- |
| CC[C@@H]([C@H](C)O)n1ncn(-c2ccc(N3CCN(c4ccc(OC[C@@H]5CO[C@@](Cn6cncn6)(c6ccc(F)cc6F)C5)cc4)CC3)cc2)c1=O [Posaconazole] | 6.9 |
| C[C@@H](c1ncncc1F)[C@](O)(Cn1cncn1)c1ccc(F)cc1F [Voriconazole] | 2.5 |
